Drawing on PubChem BioAssay AID192 (DTP/NCI, 2004), this text covers T/C for 24 compounds.

This test relates to BDF1 mice, B16 melanoma ip, median survival T/C. Description: NCI In Vivo Anticancer Drug Screen. Data for tumor model B16 Melanoma (intraperitoneal) in B6D2F1 (BDF1) mice. To be noted: endpoint: median survival time, higher = longer survival. In short, it runs like this: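 Transplantable tumor model; survival or tumor size measured; reported as T/C, treated over vehicle control.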

The mark [1] stands for this setting: dose: 100.0 mg/kg/injection, schedule: Q01DX009 (ip), vehicle: Klucel (hydroxypropylcellulose) (HPC).
[2] abbreviates: dose: 200.0 mg/kg/injection, schedule: Q01DX009 (ip), vehicle: Klucel (hydroxypropylcellulose) (HPC).
The mark [3] stands for this setting: dose: 100.0 mg/kg/injection, schedule: Q01DX009 (ip), vehicle: saline.
[4] abbreviates: dose: 200.0 mg/kg/injection, schedule: Q01DX009 (ip), vehicle: saline.
Where [5] appears, read: dose: 400.0 mg/kg/injection, schedule: Q01DX009 (ip), vehicle: saline.
Setting [6] is: dose: 50.0 mg/kg/injection, schedule: Q01DX009 (ip), vehicle: Klucel (hydroxypropylcellulose) (HPC).
[7] abbreviates: dose: 150.0 mg/kg/injection, schedule: Q01DX009 (ip), vehicle: Klucel (hydroxypropylcellulose) (HPC).
[8] abbreviates: dose: 300.0 mg/kg/injection, schedule: Q01DX009 (ip), vehicle: Klucel (hydroxypropylcellulose) (HPC).
Setting [9] is: dose: 6.25 mg/kg/injection, schedule: Q01DX009 (ip), vehicle: Klucel (hydroxypropylcellulose) (HPC).
[10] abbreviates: dose: 25.0 mg/kg/injection, schedule: Q01DX009 (ip), vehicle: Klucel (hydroxypropylcellulose) (HPC).
Where [11] appears, read: dose: 25.0 mg/kg/injection, schedule: Q01DX009 (ip), vehicle: saline.
Setting [12] is: dose: 50.0 mg/kg/injection, schedule: Q01DX009 (ip), vehicle: saline.
The mark [13] stands for this setting: dose: 50.0 mg/kg/injection, schedule: Q01DX009 (ip), vehicle: saline with Tween-80.
Setting [14] is: dose: 100.0 mg/kg/injection, schedule: Q01DX009 (ip), vehicle: saline with Tween-80.
[15] abbreviates: dose: 25.0 mg/kg/injection, schedule: Q01DX009 (ip), vehicle: saline with Tween-80.
Where [16] appears, read: dose: 1.56 mg/kg/injection, schedule: Q01DX009 (ip), vehicle: Klucel (hydroxypropylcellulose) (HPC).
Where [17] appears, read: dose: 3.13 mg/kg/injection, schedule: Q01DX009 (ip), vehicle: Klucel (hydroxypropylcellulose) (HPC).
The mark [18] stands for this setting: dose: 12.5 mg/kg/injection, schedule: Q01DX009 (ip), vehicle: saline.

Values joined by “and” are separate entries in the source; they are usually repeats but may differ in a detail not shown here. Equal entries are not always repeated. Toxic doses and inconclusive results are not listed. Peptide text beside a SMILES is read from it. * marks the point of attachment. Cbz = O=C(OCc1ccccc1)*

Consider `N[C@H](C(=O)O)[C@H]1ON=C(Cl)[C@@H]1O`, for which the T/C reads like this: (dose: 4.0 mg/kg/injection, schedule: Q01DX009 (ip), vehicle: saline) 90 % of control; (dose: 8.0 mg/kg/injection, schedule: Q01DX009 (ip), vehicle: saline) 94 % of control; (dose: 16.0 mg/kg/injection, schedule: Q01DX009 (ip), vehicle: saline) 103 % of control; (dose: 32.0 mg/kg/injection, schedule: Q01DX009 (ip), vehicle: saline) 106 % of control; (dose: 64.0 mg/kg/injection, schedule: Q01DX009 (ip), vehicle: saline) 102 % of control and 115 % of control; (dose: 128.0 mg/kg/injection, schedule: Q01DX009 (ip), vehicle: saline) 101 % of control. In addition, the T/C runs as follows: (dose: 256.0 mg/kg/injection, schedule: Q01DX009 (ip), vehicle: saline) 107 % of control; (dose: 512.0 mg/kg/injection, schedule: Q01DX009 (ip), vehicle: saline) 109 % of control.
In the case of `C1=CC2C=CC12` (centres undefined), the T/C is 91 % of control (dose: 50.0 mg/kg/injection, schedule: Q04DX003 (ip), vehicle: saline with Tween-80) and 89 % of control (dose: 100.0 mg/kg/injection, schedule: Q04DX003 (ip), vehicle: saline with Tween-80).
Turning to `O=C(O)C(S)c1ccc2ccccc2c1` (centres undefined), the T/C by setting is: under setting [1], 101 % of control; under setting [2], 96 % of control.
As for `CCCCOC(=O)C(CC)(CC)C(=O)OCCCC`, the T/C under setting [3] was 110 % of control, the T/C under setting [4] is 113 % of control and the T/C under setting [5] is 93 % of control.
As to `O=P(OCc1ccccc1)(OCc1ccccc1)C(Nc1ccccc1)c1ccccc1` (centres undefined), the T/C was 97 % of control under setting [6], 90 % of control under setting [1] and 90 % of control under setting [2].
Regarding `O=C(O)/C=C/C(=O)Nc1cccc(Oc2ccc([N+](=O)[O-])cc2[N+](=O)[O-])c1`, the T/C was 90 % of control under setting [7] and 107 % of control under setting [8].
Consider `O=C1c2ccccc2C(=O)c2c(NCCN3CCNCC3)ccc(NCCN3CCNCC3)c21`, for which the T/C is, setting by setting: (dose: 8.0 mg/kg/injection, schedule: Q01DX009 (ip), vehicle: acid diluted with saline) 106 % of control; (dose: 16.0 mg/kg/injection, schedule: Q01DX009 (ip), vehicle: acid diluted with saline) 104 % of control; (dose: 32.0 mg/kg/injection, schedule: Q01DX009 (ip), vehicle: acid diluted with saline) 104 % of control; (dose: 64.0 mg/kg/injection, schedule: Q01DX009 (ip), vehicle: acid diluted with saline) 96 % of control.
Take `O=C(CN1CC1)NCCCCCCCCNC(=O)CN1CC1`: the T/C under setting [9] was 124 % of control and the T/C under setting [10] is 93 % of control.
For the compound `CC(C)OCc1c(N)nc(=S)[nH]c1C(=O)O`, the T/C is, setting by setting: under setting [11], 92 % of control; under setting [12], 86 % of control.
With `O=C(Oc1ccc(Cl)cc1Cl)c1ccc([N+](=O)[O-])cc1`, the T/C reads like this: under setting [10], 87 % of control; under setting [1], 86 % of control.
Take `COC(=O)CNC(=O)C(NC(=O)C1CCCN1C(=O)OCc1ccccc1)C(C)C` (stereo not drawn) (Cbz-Pro-Val-Gly-OMe; configuration not given here): the T/C reads like this: under setting [13], 91 % of control; under setting [14], 88 % of control.
As to `CS(=O)(=O)OCCC(=O)N1CCN(C(=O)CCOS(C)(=O)=O)CC1`, the T/C reads like this: (dose: 1.56 mg/kg/injection, schedule: Q01DX009 (ip), vehicle: suspension in saline) 114 % of control; (dose: 3.12 mg/kg/injection, schedule: Q01DX009 (ip), vehicle: suspension in saline) 111 % of control; (dose: 6.25 mg/kg/injection, schedule: Q01DX009 (ip), vehicle: suspension in saline) 114 % of control; (dose: 12.5 mg/kg/injection, schedule: Q01DX009 (ip), vehicle: suspension in saline) 124 % of control; under setting [15], 150 % of control; under setting [13], 152 % of control and 170 % of control. Besides, the T/C was 171 % of control (dose: 50.0 mg/kg/injection, schedule: Q01DX009 (ip), vehicle: suspension in saline) and 160 % of control under setting [14].
Regarding `C=C1C(=O)OC2/C=C(\CO)C(OC(C)=O)CC(O)/C(C)=C/C(OC(=O)C(C)CC)C12` (centres undefined), the T/C is 108 % of control under setting [16], 101 % of control under setting [17] and 109 % of control under setting [9].
In the case of `Cc1c2ccnc(-c3ccccc3)c2cc2c1[nH]c1ccccc12`, the T/C reads like this: under setting [15], 115 % of control; under setting [13], 104 % of control; under setting [14], 94 % of control and 96 % of control.
In the case of `N=Cc1c(O)[nH]c(=O)[nH]c1=O`, the T/C under setting [7] is 87 % of control and the T/C under setting [8] was 95 % of control.
Take `Cc1n(CC(C)C)c2c([n+]1C)C(=O)c1ccccc1C2=O`: the T/C by setting is: (dose: 1.0 mg/kg/injection, schedule: Q01DX009 (ip), vehicle: saline) 90 % of control; (dose: 2.0 mg/kg/injection, schedule: Q01DX009 (ip), vehicle: saline) 87 % of control.
On to `Cn1nnnc1N/N=C/c1ccccc1`, for which the T/C is, setting by setting: under setting [14], 93 % of control; (dose: 200.0 mg/kg/injection, schedule: Q01DX009 (ip), vehicle: saline with Tween-80) 95 % of control; (dose: 400.0 mg/kg/injection, schedule: Q01DX009 (ip), vehicle: saline with Tween-80) 90 % of control.
In the case of `Cc1ccccc1Oc1ccccc1N`, the T/C by setting is: (dose: 50.0 mg/kg/injection, schedule: Q01DX009 (sc), vehicle: olive oil, sesame oil, peanut oil) 88 % of control; (dose: 100.0 mg/kg/injection, schedule: Q01DX009 (sc), vehicle: olive oil, sesame oil, peanut oil) 90 % of control; (dose: 200.0 mg/kg/injection, schedule: Q01DX009 (sc), vehicle: olive oil, sesame oil, peanut oil) 97 % of control; (dose: 400.0 mg/kg/injection, schedule: Q01DX009 (sc), vehicle: olive oil, sesame oil, peanut oil) 90 % of control.
On to `NNCCc1ccccc1`, for which the T/C (dose: 3.12 mg/kg/injection, schedule: Q01DX009 (ip), vehicle: saline) was 94 % of control; the T/C under setting [18] was 117 % of control; the T/C under setting [11] was 100 % of control; the T/C under setting [12] is 97 % of control.
`BrCCC[P+](c1ccccc1)(c1ccccc1)c1ccccc1`: the T/C was 106 % of control under setting [17]; 105 % of control (dose: 3.13 mg/kg/injection, schedule: Q01DX009 (ip), vehicle: saline); 89 % of control (dose: 3.13 mg/kg/injection, schedule: Q04DX003 (ip), vehicle: saline); 103 % of control under setting [9]; 100 % of control (dose: 6.25 mg/kg/injection, schedule: Q01DX009 (ip), vehicle: saline); 89 % of control (dose: 6.25 mg/kg/injection, schedule: Q04DX003 (ip), vehicle: saline). For the same compound, the T/C by setting is: (dose: 12.5 mg/kg/injection, schedule: Q01DX009 (ip), vehicle: Klucel (hydroxypropylcellulose) (HPC)) 106 % of control; under setting [18], 107 % of control; (dose: 12.5 mg/kg/injection, schedule: Q04DX003 (ip), vehicle: saline) 89 % of control; under setting [10], 90 % of control; (dose: 25.0 mg/kg/injection, schedule: Q04DX003 (ip), vehicle: Klucel (hydroxypropylcellulose) (HPC)) 90 % of control.
Consider `COc1ccccc1N1CCN(CCc2c[nH]c3cc4c(cc23)OCO4)CC1`, for which the T/C is 89 % of control under setting [16] and 89 % of control under setting [9].
In the case of `C[P+](C)(Cc1ccc([N+](=O)[O-])cc1)c1ccccc1`, the T/C was 98 % of control under setting [10] and 100 % of control under setting [6].
`CN(C)CCOC(=O)COc1ccc(Cl)cc1`: the T/C is, setting by setting: under setting [11], 104 % of control; under setting [12], 104 % of control; under setting [3], 109 % of control; under setting [4], 102 % of control; under setting [5], 97 % of control.
Consider `CCCCCC/C=C/C#CCCCCCCCC(=O)O`, for which the T/C is 107 % of control (dose: 37.5 mg/kg/injection, schedule: Q01DX009 (ip), vehicle: Klucel (hydroxypropylcellulose) (HPC)); 99 % of control (dose: 75.0 mg/kg/injection, schedule: Q01DX009 (ip), vehicle: Klucel (hydroxypropylcellulose) (HPC)); 101 % of control under setting [7].
